# Laboratory results: article PMC9757636, “The effectiveness of newly synthesized quaternary ammonium salts differing in chain length and type of counterion against priority human pathogens” (Scientific Reports, 2022)
# Marks after values point to notes of the source that are not given here.
# Columns and labels:
# P. aeruginosa ATCC 27853 = experiment: MIC/MBC microdilution; type: cell-based, Pseudomonas aeruginosa; conditions: P. aeruginosa ATCC 27853; for Minimal bactericidal concentration (*MBC): 99.9% reduction; for Minimal inhibitory concentration (MIC): 24 h, 37 °C, >90% growth inhibition
# Procedure: (§1) The minimum inhibitory concentration (MIC) of the tested monomeric QAS was performed using the microdilution method according to CLSI recommendation (M27-A3). Concentrations from 10 to 1280 µM were analyzed. Strains were incubated with or without compounds (growth control) for 24 h at 37 °C. Three independent replicates were performed. The MIC value was determined spectrophotometrically and the concentration that inhibited more than 90% of growth was determined. Optical density was measured at λ = 590 nm using a 96-well microplate reader (Bio-Rad Universal Hood II).
# (§2) To determine the minimum bactericidal concentration (MBC), 10 µL of bacterial suspension incubated with monomeric QAS (MIC concentration and two times higher) was transferred to plates with LB (1% tryptone, 1% yeast extract, 0.5% NaCl) medium. […] The concentration that reduced 99.9% of microbial growth was determined as MBC[54].
# P. aeruginosa PAO1 [1] = experiment: MIC/MBC microdilution; type: cell-based, Pseudomonas aeruginosa; conditions: for Minimal bactericidal concentration (*MBC): 99.9% reduction; for Minimal inhibitory concentration (MIC): 24 h, 37 °C, >90% growth inhibition
# Procedure: as §1, §2
# S. aureus ATCC 6538 = experiment: MIC/MBC microdilution; type: cell-based, Staphylococcus aureus; conditions: S. aureus ATCC 6538; for Minimal bactericidal concentration (*MBC): 99.9% reduction; for Minimal inhibitory concentration (MIC): 24 h, 37 °C, >90% growth inhibition
# Procedure: as §1, §2
# S. aureus MRSA R98 = experiment: MIC/MBC microdilution; type: cell-based, Staphylococcus aureus; conditions: for Minimal bactericidal concentration (*MBC): 99.9% reduction; for Minimal inhibitory concentration (MIC): 24 h, 37 °C, >90% growth inhibition
# Procedure: as §1, §2
# [2] = test system: S. epidermidis ATCC 35984; experiment: MIC/MBC microdilution; type: cell-based, Staphylococcus epidermidis; conditions: for Minimal bactericidal concentration (*MBC): 99.9% reduction; for Minimal inhibitory concentration (MIC): 24 h, 37 °C, >90% growth inhibition
# Procedure: as §1, §2
# S. epidermidis B374 [3] = experiment: MIC/MBC microdilution; type: cell-based, Staphylococcus epidermidis; conditions: S. epidermidis B374; for MBC: 99.9% reduction, read-out: Minimal bactericidal concentration (*MBC); for MIC: 24 h, 37 °C, >90% growth inhibition, read-out: Minimal inhibitory concentration (MIC)
# Procedure: as §1, §2
# S. epidermidis SI8 = experiment: MIC/MBC microdilution; type: cell-based, Staphylococcus epidermidis; conditions: for Minimal bactericidal concentration (*MBC): 99.9% reduction; for Minimal inhibitory concentration (MIC): 24 h, 37 °C, >90% growth inhibition
# Procedure: as §1, §2
# E. coli ATCC 11229 = experiment: MIC/MBC microdilution; type: cell-based, Escherichia coli; conditions: E. coli ATCC 11229; for Minimal bactericidal concentration (*MBC): 99.9% reduction; for Minimal inhibitory concentration (MIC): 24 h, 37 °C, >90% growth inhibition
# Procedure: as §1, §2
# E. coli H64 = experiment: MIC/MBC microdilution; type: cell-based, Escherichia coli; conditions: E. coli H64; for Minimal bactericidal concentration (*MBC): 99.9% reduction; for Minimal inhibitory concentration (MIC) / MIC: 24 h, 37 °C, >90% growth inhibition; for MIC: read-out: Minimal inhibitory concentration (MIC)
# Procedure: as §1, §2
# [4] = Critical micelle concentration by conductometric measurements; type: physicochemical; conditions: aqueous solution, 25 °C
# Procedure: Values of critical micelle concentrations (CMC) of cationic surfactants were measured conductrometrically. N5721 conductometer (Tel-Eko Projekt sp z o.o., Poland), equipped with N5981 probe, was calibrated using 0.1 M, 0.01 M and 0.001 M KCl aqueous solutions (conductivities equal to 1.287 S/m, 0.141 S/m and 0.0147 S/m, respectively) and used without temperature compensation mode (constant temperature 25 °C was kept during all calibration procedures and measurements). Values of specific conductivities of at least 15 different concentrations for each surfactant were measured and plotted versus concentration; the discontinuity point was used to determine critical micelle concentration.
# [5] = test system: Salmonella typhimurium TA100; experiment: Mutagenicity (Ames test); type: cell-based; conditions: for Number of colonies: ± SD
# Procedure: (§3) Two reference strains of Salmonella Typhimurium TA98 and Salmonella Typhimurium TA100, deficient in histidine synthesis, were used for this study according to the method proposed by Ames et al. with modifications. […] The mixture was mixed and poured onto a Davis minimal medium plate. The mixture without the test compound was used as a negative control. The positive control was a mixture of bacterial culture, biotin-histidine solution, and sodium azide (at a concentration of 15 μg/mL for strain TA100) or acriflavine (at a concentration of 100 μg/mL for strain TA98). Plates were incubated for 48 h at 37 °C, and then colonies were counted. The mutagenicity ratio (MR), the ratio of the number of revertants grown in the presence of the test compound to the number of spontaneously occurring revertants (negative control), was calculated. A mutagenic ratio equal to or greater than 1.7 indicates the mutagenic potential of the tested compounds. The study was performed in three times.
# [6] = test system: Salmonella typhimurium TA98; experiment: Mutagenicity (Ames test); type: cell-based; conditions: for Number of colonies: ± SD
# Procedure: as §3
# P. aeruginosa PAO1 [7] = experiment: Adhesion to glass; type: cell-based, Pseudomonas aeruginosa; conditions: concentration not given
# S. epidermidis B374 [8] = experiment: Adhesion to polystyrene plate; type: cell-based, Staphylococcus epidermidis; conditions: 320 µM
# Procedure: Adhesion analysis to polystyrene surfaces was determined according to the method of Rodrigues et al. with modifications. Polystyrene 96-well plates were incubated with the respective compound concentrations (10–1280 µM) for 4 h at 37 °C with 100 rpm shaking. The plates were then washed with miliQ and inoculated with 100 µL of bacterial suspension (OD = 0.4–0.6). Plates were incubated for 6 h at 37 °C with 100 rpm shaking. Wells were rinsed and fixed for 20 min at 60 °C. They were then […] with 0.1% crystal violet solution for 5 min. The wells were washed with miliQ until the unfixed dye was completely eluted. The absorbance at λ = 590 nm was measured using a reader (Bio-Rad Universal Hood II). The positive control was a surface not treated with QAS. Three independent trials were performed.
# S. epidermidis B374 [9] = experiment: Adhesion to stainless steel; type: cell-based, Staphylococcus epidermidis; conditions: concentration not given, range given over three strains
SMILES,Minimal bactericidal concentration (*MBC) (P. aeruginosa ATCC 27853),Minimal inhibitory concentration (MIC) (P. aeruginosa ATCC 27853),Minimal bactericidal concentration (*MBC) (P. aeruginosa PAO1 [1]),Minimal inhibitory concentration (MIC) (P. aeruginosa PAO1 [1]),Minimal bactericidal concentration (*MBC) (S. aureus ATCC 6538),Minimal inhibitory concentration (MIC) (S. aureus ATCC 6538),Minimal bactericidal concentration (*MBC) (S. aureus MRSA R98),Minimal inhibitory concentration (MIC) (S. aureus MRSA R98),Minimal bactericidal concentration (*MBC) [2],Minimal inhibitory concentration (MIC) [2],MBC (S. epidermidis B374 [3]) [µM],MIC (S. epidermidis B374 [3]) [µM],Minimal bactericidal concentration (*MBC) (S. epidermidis SI8),Minimal inhibitory concentration (MIC) (S. epidermidis SI8),Minimal bactericidal concentration (*MBC) (E. coli ATCC 11229),Minimal inhibitory concentration (MIC) (E. coli ATCC 11229),Minimal bactericidal concentration (*MBC) (E. coli H64),Minimal inhibitory concentration (MIC) (E. coli H64),MIC (E. coli H64) [µM],CMC [4] [mol/L],also measured
"CCCCCCCCCCCCCCN(C)CCC[N+](C)(C)C.COC(=O)[O-] [MeC14, [(3-tetradecyilomethyloamine)propyl] trimethylammonium methylcarbonate]",1280 * > 1280 µM,1280 * > 1280 µM,> 1280 * > 1280 µM,> 1280 * > 1280 µM,80 *80 µM,80 *80 µM,80 *80 µM,80 *80 µM,40 *40 µM,40 *40 µM,160,80,40 *40 µM,40 *40 µM,320 *320 µM,320 *320 µM,80 *80 µM,80 *80 µM,80,0.0041,Mutagenicity index ([5]; ¼ MIC): 1.17; Number of colonies ([5]; ¼ MIC): 329.5 ± 20.5; Mutagenicity index ([5]; ½ MIC): 1.10; Number of colonies ([5]; ½ MIC): 310 ± 17.3; Mutagenicity index ([6]; ¼ MIC): 0.57; Number of colonies ([6]; ¼ MIC): 13 ± 2.8; Mutagenicity index ([6]; ½ MIC): 0.95; Number of colonies ([6]; ½ MIC): 21.7 ± 3.5
"CCCCCCCCCCCCCCCCN(C)CCC[N+](C)(C)C.COC(=O)[O-] [MeC16, [(3-hexadecyilomethyloamine)propyl] trimethylammonium methylcarbonate]",> 1280 * > 1280 µM,> 1280 * > 1280 µM,> 1280 * > 1280 µM,> 1280 * > 1280 µM,10 *10 µM,10 *10 µM,40 *40 µM,40 *40 µM,40 *40 µM,40 *40 µM,160,80,10 *10 µM,10 *10 µM,320 *320 µM,320 *320 µM,80 *80 µM,80 *80 µM,80,0.0012,reduction of adhesion to glass (P. aeruginosa PAO1 [7]): approximately 20%; reduction in adhesion to polystyrene (S. epidermidis B374 [8]): 77%; inhibition of adhesion to stainless steel (S. epidermidis B374 [9]): 69–83%; Mutagenicity index ([5]; ¼ MIC): 1.09; Number of colonies ([5]; ¼ MIC): 305 ± 8.7; Mutagenicity index ([5]; ½ MIC): 1.09; Number of colonies ([5]; ½ MIC): 306.7 ± 11.5; Mutagenicity index ([6]; ¼ MIC): 0.39; Number of colonies ([6]; ¼ MIC): 9 ± 2; Mutagenicity index ([6]; ½ MIC): 0.19; Number of colonies ([6]; ½ MIC): 4.3 ± 3.1
